Results: patent US20230203482A1, “Methods of Rescuing Stop Codons via Genetic Reassignment with ACE-tRNA” (THE WISTAR INSTITUTE OF ANATOMY AND BIOLOGY, priority 2017, published 2023)

Tested on: NLuc-UGA PTC
Experiment: NanoLuc nonsense reporter screen (all-in-one HTC plasmid), TGA/UGA PTC, HEK293 cells
Assay type: cell-based, human
Details: for stop codon selectivity (NanoLuc TGA, TAA or TAG reporter): transiently transfected HEK293 cells
Excerpt: Several different nonsense mutations cause CF, thus underlying roughly 10% of all CF disease. FIG. 7. These cases are concentrated into […] specific genetic lesions: E60X, R75X, G542X, R553X, Q890X, Y1092X, R1158X, R1162X and W1282X. A screen was developed to screen existing human tRNA sequences for modification and tolerance to anti-codon editing. To this end, roughly 144 ACE-tRNAs were candidates to test for those that could be used to promote the repair of the disease causative nonsense codon and the expression of the full-length protein. Specifically, using the scheme described in FIG. 11, tRNA libraries were generated to identify novel tRNA sequences that encode for ACE tRNA with the ability to repair the top CF causative nonsense mutations. Specifically, 10 ng of annealed oligos encoding the ACE-tRNAs were combined with 50 ng of NanoLuc reporter plasmid, 1 μl 10×CutSmart Buffer (NEB), 1 μl T4 ligase (NEB), 10 mM ATP and 1 μl BbsI (NEB) and cycled in a thermocycler as described in FIG. 11. 1 μl of the reaction was transformed into competent E. coli and the transformants were plated on ampicillin agar plates. One transformant was picked per plate was picked, grown in 1 ml of LB under ampicillin selection, miniprepped and sequence verified.
Screening studies were first performed to identify the best ACE-tRNA Candidates from tryptophan and glycine. 125 ng of sequence verified miniprep cDNA of NanoLuc reporter plasmid with ACE-tRNA was transfected into HEK cells using calcium phosphate. HEK cells were plated in 96 well plates at 4×10^4 the day prior. 24 hours after transfection the media was replaced with 20 μl of PBS and 15 μl of NanoGlo reagent (Promega) was added. Plates were read on a SpectraMax i3 (Molecular Devices). Data are of replicates of 3 or greater. FIG. 8.
FIG. 10. An additional modification of the tRNA was made to further enable their function for the purpose of suppression of nonsense codons and the promotion of protein expression. […] To this end, single and double mutations were directly engineered into the t-stem loop of tRNA Trpchr17.trna39—an ACE-tRNA identified with activity for the rescue of tryptophan TGA nonsense codons. Thirty-eight tRNA t-stem variants were thus generated and screened in HEK cells transiently transfected with the nonsense rescue reporter construct shown in FIG. 4. […] This is a generalizable modification, that is, new tRNA sequences identified, by example 1 and 2, can be made better (for their ability to rescue nonsense codons) through further rationale modifications. Such approaches aid in the therapeutic utility of ACE-tRNA directed to tissue types with low abundance target RNA or where tRNA delivery may be limiting.
In order to enable the identification of the nucleotide composition and functional ability to suppress nonsense codons by new types of tRNA, an All-In-One Plasmid With A One Pot Cloning Reaction was invented for High Throughput Cloning FIG. 11. This approach enables the facile investigation of ACE-tRNA activity via luciferase activity in a standard 96 well format. Briefly, synthetic nucleotide sequences encoding for tRNA are ligated into the NanoLuc Reporter plasmid, with an example of the TGA nonsense reporter plasmid variant shown in FIG. 11. […] and TAG (amber) stop codon rescue vectors have been successfully designed and implemented in FIGS. 16-19. The benefits are the approach is that DNA oligos encoding for tRNA libraries can be ligated in the NanoLuc reporter plasmid with the presence of the restriction enzyme and ligase with the reaction pushed to nearly 100% incorporation of tRNA insert (FIG. 11)-thus the ‘one-pot’ designation. The reaction is transformed into E. coli, with the resultant cDNA purified by standard methods. […]

Molecule	Ranking (Table 7, Trp TGA)	stop codon selectivity (NanoLuc TGA, TAA or TAG reporter) (listed as ACE-tRNA^Trp)	Ranking (Table 8, Gly TGA)	stop codon selectivity (NanoLuc TGA, TAA or TAG reporter) (listed as Glychr19.t2)
Trpchr17.trna39: top performing tryptophan ACE-tRNA UGA suppressor, SEQ ID NO: 48	#1	Stop codon specificity is maintained	–	–
Glychr19.trna2: top performing glycine ACE-tRNA UGA suppressor, SEQ ID NO: 53 (nucleic acid, chemistry not fully specified) GCGTTGGTGGTATAGTGGTTAGCATAGCTGCCTTCAAAGCAGTTGACCCGGGTTCGATTCCCGGCCAACGCA	–	–	#1	selectively suppresses the UGA stop codon
